The values that follow come from ChEMBL document CHEMBL4321854, “Discovery of a First-in-Class Mitogen-Activated Protein Kinase Kinase 1/2 Degrader” (J Med Chem, 2019).

SMILES strings stand for the structures. Active and inactive are the calls of the source. The rule behind the calls is not given here.

The target of test [1] is T1, von Hippel-Lindau disease tumor suppressor/Dual specificity mitogen-activated protein kinase kinase 1 (Homo sapiens) (UniProt Q02750+P40337). The test is described as follows: (§1) Protac activity against VHL/MEK1 in human COLO205 cells harboring BRAF V600E variant assessed as degradation of MEK1 after 24 hrs by Western blot analysis. The class given is cell-based. On the technique in general: A western blot detects proteins with antibodies after separation by electrophoresis.
T1 sequence (P40337 whole entry, looked up): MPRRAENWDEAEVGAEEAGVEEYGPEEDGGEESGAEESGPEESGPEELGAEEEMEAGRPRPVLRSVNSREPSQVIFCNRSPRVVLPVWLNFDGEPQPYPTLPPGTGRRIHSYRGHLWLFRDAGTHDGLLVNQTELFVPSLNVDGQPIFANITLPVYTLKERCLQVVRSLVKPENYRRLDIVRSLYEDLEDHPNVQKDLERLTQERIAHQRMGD
T1 sequence (Q02750 whole entry, looked up): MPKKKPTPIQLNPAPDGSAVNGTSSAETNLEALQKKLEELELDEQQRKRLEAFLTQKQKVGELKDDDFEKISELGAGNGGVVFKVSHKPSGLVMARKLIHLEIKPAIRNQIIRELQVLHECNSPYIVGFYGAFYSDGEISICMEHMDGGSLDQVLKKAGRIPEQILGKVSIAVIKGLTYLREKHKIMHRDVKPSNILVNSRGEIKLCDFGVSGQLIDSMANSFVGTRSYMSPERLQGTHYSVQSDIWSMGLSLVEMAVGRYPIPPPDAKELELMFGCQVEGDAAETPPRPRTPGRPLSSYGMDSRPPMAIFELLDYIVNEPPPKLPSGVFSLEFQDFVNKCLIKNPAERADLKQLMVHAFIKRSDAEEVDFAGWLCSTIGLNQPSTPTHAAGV

Test [2] has as its target von Hippel-Lindau disease tumor suppressor/Dual specificity mitogen-activated protein kinase kinase 1 (Homo sapiens, UniProt Q02750+P40337, V600E). The description is as §1. The class given is cell-based.
Test [3] deals with T2, von Hippel-Lindau disease tumor suppressor/Dual specificity mitogen-activated protein kinase kinase 2/Dual specificity mitogen-activated protein kinase kinase 1 (Homo sapiens) (UniProt P36507+Q02750+P40337). The test is described as follows: Protac activity against VHL/MEK1/2 in human COLO205 cells harboring with BRAF V600E variant assessed as reduction in phosphorylation of ERK at T202/Y204 residues after 24 hrs by Western blot analysis. The class given is cell-based.
T2 sequence (P36507 whole entry, looked up): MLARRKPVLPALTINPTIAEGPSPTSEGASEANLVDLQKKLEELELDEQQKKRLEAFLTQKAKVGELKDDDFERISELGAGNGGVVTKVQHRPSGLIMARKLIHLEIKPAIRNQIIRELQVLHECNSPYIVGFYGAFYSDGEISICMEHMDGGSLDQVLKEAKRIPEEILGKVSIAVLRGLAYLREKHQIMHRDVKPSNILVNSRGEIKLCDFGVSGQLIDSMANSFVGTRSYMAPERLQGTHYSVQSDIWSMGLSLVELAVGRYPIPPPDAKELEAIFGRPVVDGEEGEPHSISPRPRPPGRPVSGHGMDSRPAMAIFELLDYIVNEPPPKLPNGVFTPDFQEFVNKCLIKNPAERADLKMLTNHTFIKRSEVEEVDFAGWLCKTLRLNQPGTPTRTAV
T2 sequence (P40337 whole entry, looked up): as the sequence (P40337 whole entry, looked up) above
T2 sequence (Q02750 whole entry, looked up): as the sequence (Q02750 whole entry, looked up) above

The target of test [4] is T2, von Hippel-Lindau disease tumor suppressor/Dual specificity mitogen-activated protein kinase kinase 2/Dual specificity mitogen-activated protein kinase kinase 1 (Homo sapiens). The test can be described thus: Protac activity against VHL/MEK1/2 in human UACC257 cells harboring with BRAF V600E variant assessed as reduction in phosphorylation of ERK at T202/Y204 residues after 24 hrs by Western blot analysis. The class given is cell-based.

In test [5] the test system is UACC-257. The test can be described thus: Effect on total ERK protein expression in human UACC257 cells at 0.001 to 5 uM after 24 hrs by Western blot analysis. The class given is functional, cell-based.
Test [6] concerns the target T1, von Hippel-Lindau disease tumor suppressor/Dual specificity mitogen-activated protein kinase kinase 1 (Homo sapiens). The test is described as follows: Protac activity against VHL/MEK1 in human HT-29 cells harboring with BRAF V600E variant assessed as degradation of MEK1 by measuring reduction in MEK1 protein level at 0.1 to 0.3 uM after 2 hrs by Western blot analysis. The class given is cell-based.

Test [7] addresses T3, von Hippel-Lindau disease tumor suppressor/Dual specificity mitogen-activated protein kinase kinase 2 (Homo sapiens) (UniProt P36507+P40337). The test can be described thus: Protac activity against VHL/MEK2 in human HT-29 cells harboring with BRAF V600E variant assessed as degradation of MEK2 at 0.3 uM after 3 to 144 hrs by Western blot analysis. The class given is cell-based.

The target of test [8] is T3, von Hippel-Lindau disease tumor suppressor/Dual specificity mitogen-activated protein kinase kinase 2 (Homo sapiens). The test can be described thus: Protac activity against VHL/MEK2 in human SK-MEL-28 cells harboring with BRAF V600E variant assessed as degradation of MEK2 by measuring MEK2 protein level at 0.3 uM pretreated with MEK1/2 inhibitor, PD0325901 for 2 hrs followed by incubation with compound for 10 hrs by Western blot analysis. It is filed as cell-based.

Test [9] deals with T2, von Hippel-Lindau disease tumor suppressor/Dual specificity mitogen-activated protein kinase kinase 2/Dual specificity mitogen-activated protein kinase kinase 1 (Homo sapiens). The test can be described thus: Protac activity against VHL/MEK1/2 in human HT-29 cells harboring with BRAF V600E variant assessed as phosphorylation of ERK at T202/Y204 residues at 0.3 uM pretreated with proteasome inhibitor, MG-132 for 2 hrs followed by incubation with compound for 10 hrs by Western blot analysis. It is filed as cell-based.

Test [10] has the same target. The test can be described thus: Protac activity against VHL/MEK1/2 in human HT-29 cells harboring with BRAF V600E variant assessed as phosphorylation of MEK at S218/222 residues at 0.3 uM pretreated with NEDD8-activating enzyme inhibitor, MLN4924 for 2 hrs followed by incubation with compound for 10 hrs by Western blot analysis. The class given is cell-based.
In test [11] the test system is SK-MEL-28. The test is described as follows: Antiproliferative activity against human SK-MEL-28 cells assessed as reduction in cell growth after 3 days by MTT assay. It is filed as functional. Background: Tetrazolium dyes change colour on reduction, which living cells bring about.
The subject of test [12] is SK-MEL-28. The test is described as follows: Inhibition of colony formation in human SK-MEL-28 cells at 10 to 100 nM supplemented with fresh medium containing compound every 3 days for 14 days by crystal violet staining based assay. The class given is functional, cell-based.
The target in test [13] is T1, von Hippel-Lindau disease tumor suppressor/Dual specificity mitogen-activated protein kinase kinase 1 (Homo sapiens). The test can be described thus: Protac activity against VHL/MEK1 in human HT-29 cells harboring with BRAF V600E variant assessed as degradation of MEK1 at 0.1 to 0.3 uM by Western blot analysis. It is filed as cell-based. As to conditions: TDE = time-dependent effect.

T3 sequence (P36507 whole entry, looked up): as the sequence (P36507 whole entry, looked up) above
T3 sequence (P40337 whole entry, looked up): as the sequence (P40337 whole entry, looked up) above
von Hippel-Lindau disease tumor suppressor/Dual specificity mitogen-activated protein kinase kinase 1, sequence (P40337 whole entry, looked up, stated change not applied): as the sequence (P40337 whole entry, looked up) above
von Hippel-Lindau disease tumor suppressor/Dual specificity mitogen-activated protein kinase kinase 1, sequence (Q02750 whole entry, looked up, stated change not applied): as the sequence (Q02750 whole entry, looked up) above

Usually DC50 stands for the concentration giving 50% degradation. By GI50 is commonly meant the concentration giving 50% growth inhibition. On to `Cc1ncsc1-c1ccc([C@H](C)NC(=O)[C@@H]2C[C@@H](O)CN2C(=O)[C@@H](NC(=O)CCCCCCCCCCNCCCONC(=O)c2ccc(F)c(F)c2Nc2ccc(I)cc2F)C(C)(C)C)cc1`, for which the Activity entry in [1] is “Dose-dependent effect”; in test [3] it was “Dose-dependent effect”; in test [4], “Dose-dependent effect”; in test [13], “Tde”. In addition, the 50% degradation concentration (DC50) in [2] turned out to be 18 nM. Moreover, the outcome in test [5], in test [8], in [9] and in test [10] was inactive. The outcome in test [6] and in test [7] was Active. Besides, the “growth inhibition (GI)” value in test [11] was “Dose-dependent effect”. For the same compound, in test [11] (SK-MEL-28, 72 h), the GI50 was 83 nM. In addition, the inhibition result in test [12] is “Active”.
